Assay results as given in patent publication US20260182575A1, “MOLECULES HAVING PESTICIDAL UTILITY AND INTERMEDIATES AND PROCESSES RELATED THERETO” (CORTEVA AGRISCIENCE LLC, priority 2022, published 2026).

What was measured:
[1] = tested on: Neotropical Brown Stink Bug (Euschistus heros, EUSCHE, BSB); assay: Bioassay 5: neotropical brown stink bug, artificial agar diet; type: in vivo
Procedure: Stock solutions were prepared with F1 as well as for each of the active ingredients individually. Test solutions were prepared from the stock solutions. Test solutions were prepared containing F1, the individual active ingredients, and mixtures of F1 with each of the active ingredients. The test solution for F1 and the individual active ingredients were prepared by adding 30 μL of the stock solution to a single well of a 96 well plate, then adding 30 μL of DMSO, followed by the addition of 140 μL of a 2:1 mixture of acetone:water as a diluent to create a 0.03% (w/v) solution. […]
The test solutions were tested against BSB using the following procedure: an artificial agar diet (2% agar, 12% sucrose) was distributed in 48 well plastic plates (Fisher Scientific™). […] The total number of living BSB nymphs was recorded four days after application. […] Percent control was measured using Abbott's correction formula (W. S. Abbott, J. Econ. Entomol. 18 (1925), pp. 265-267) as follows:
where X=No. of live nymphs on solvent check and Y=No. of live nymphs on treated bean segments. In Table B5 the “Expected % Control” was calculated using the method described in Colby S. R., Weeds, 1967, 15, 20-22. […]

[2] = tested on: Brown Planthopper (Nilaparvata lugens, NILALU, BPH); assay: Bioassay 6: brown planthopper, sprayed rice seedlings; type: in vivo; conditions: AI alone, AI Rate 0.049 g/ha, 6 days
Procedure: At these rates, F1 and the individual active ingredients were tested at a ratio of 1:1. […] F1 and triflumezopyrim were tested at a ratio of 16:1. Test solutions were prepared containing F1, the individual active ingredients, and mixtures of F1 with each of the active ingredients. Test solutions were prepared by weighing 5 mg of each test chemistry (either alone or in combination depending on the treatment) into a 25 mL glass vial. Next, 1 mL of acetone was added to each vial to dissolve the test chemistries, followed by 19 mL of water with 0.125% Tween 20 adjuvant. This test solution represented the 50 g/ha treatment, which was then serially diluted four-fold to create the three lower rates of 12.5, 3.125, and 0.78 g/ha. Triflumezopyrim was prepared in a similar manner, but two additional serial dilutions were conducted to create solutions representing 6 rates of 12.5, 3.125, 0.78, 0.19, 0.049, and 0.012 g/ha. The higher two doses were discarded, and the four lower doses were used for testing. Each rate was replicated four times, and solvent blanks were used as control treatments.
Five (5) rice seedlings (10-12 days old) planted in 3-inch pots were used as test plants. Rice seedlings were grown in soil and the soil was covered with a 2% agar solution. The test solutions were applied to test plants using a Devries laboratory research sprayer, set to spray at 200 liters per hectare (L/ha) using a TeeJet hollow cone nozzle. Following application, the rice seedlings were dried for 1 hour, after which a single clear plastic tube (2 inches in diameter×12 inches in height) was placed over the seedlings in each pot. The tube was pushed down into the agar to create a sealed test chamber. The agar prevented insects from hiding in the soil and made adult collection and grading easier. Ten to fifteen (10-15) 5th instar BPH nymphs were transferred to each test chamber using a vacuum aspirator. Immediately following BPH infestation, the test chamber was covered with a piece of grade 90 cheesecloth and secured with a rubber band, sealing the test chamber. The test chambers were held at 25° C. for 6 days, after which the total number of live insects was counted in each test chamber. Percent control was measured using Abbott's correction formula (W. S. Abbott, J. Econ. Entomol. 18 (1925), pp. 265-267) as follows:
where X=No. of live insects on solvent check and Y=No. of live insects in treated chambers. In Table B6 the “Expected % Control” was calculated using the method described in Colby S. R., Weeds, 1967, 15, 20-22. Bioassay 7: Corn Earworm (Helicoverpa zea, HELIZE, “CEW”), Fall Armyworm (Spodoptera frugiperda, LAPHFR, “FAW”), Beet Armyworm (Spodoptera exigua, LAPHEG, “BAW”),and Soybean Looper (Chrysodeixis includens, PSEPIN, “SBL”).

Cc1c(COC(=O)[C@@H]2[C@H](/C=C(\Cl)C(F)(F)F)C2(C)C)cccc1-c1ccccc1 (racemic) [Bifenthrin]
Average % Control AI ([1]; AI alone, Wt % AI 0.0045, EUSCHE, four days): 60.0%

C[C@]1(COC(=O)C2CC2)[C@@H]2C[C@H](O)[C@@]3(C)Oc4cc(-c5cccnc5)oc(=O)c4[C@H](O)[C@@H]3[C@@]2(C)CC[C@@H]1OC(=O)C1CC1 [Afidopyropen]
Average % Control AI [2]: 11.4%

Cc1ccc(COCC(F)(F)F)c(N2C(=O)CS/C2=N\C(=O)Nc2ccc(-c3ncn(-c4ccc(OC(F)(F)F)cc4)n3)cc2F)c1 [F1]
Average % Control F1 ([1]; F1 alone, Wt % F1 0.0045, EUSCHE nymphs, agar diet, four days after application): 7.1%

CON=CNC(=O)c1ccc(C2=NOC(c3cc(Cl)cc(Cl)c3)(C(F)(F)F)C2)cc1C (centres unmarked) [Fluxametamide]
Average % Control AI [2]: 42.3%

COC(=O)N(C(=O)N1CO[C@@]2(C(=O)OC)Cc3cc(Cl)ccc3C2=N1)c1ccc(OC(F)(F)F)cc1 [Indoxacarb]
Average % Control AI [2]: 1.2%
